In brackets after ≈: the same amount, converted by molar mass. Read-outs that look alike come from different tables or passages of the source.
Experiments:
[1] = system: E. coli; test: Urinary bactericidal titers (UBT) and AUBTC of volunteers' urine; format: cell-based; details: for AUBTC (range): urine after gemifloxacin 320 mg or ofloxacin 400 mg
[2] = system: P. aeruginosa; test: as above; format: cell-based; details: P. aeruginosa (16) Laboratory No. 568; urine after gemifloxacin 320 mg or ofloxacin 400 mg
[3] = system: P. aeruginosa; test: MIC and MBC by microdilution in Mueller-Hinton broth, uropathogens; format: cell-based
Description: (§1) MICs and MBCs were determined by a microdilution method with Mueller-Hinton broth. An inoculum of 1.3-9.4 x 10^5 colony forming units (CFU) per ml was used.
(§2) Strains included a reference strain E. coli ATCC 25922, susceptible to nalidixic acid (Nal-S) and the following clinical isolates obtained from complicated UTI patients: E. coli (resistant to nalidixic acid), K. pneumoniae, P. mirabilis , P. aeruginosa, […] (3 strains) and Enterococcus faecalis (2 strains).

[4] = system: K. pneumoniae; test: as above; format: cell-based
Description: as §1, §2

[5] = system: E. faecalis; test: as above; format: cell-based; details: Enterococcus faecalis
Description: as §1, §2

[6] = system: E. coli; test: as above; format: cell-based
Description: as §1, §2

[7] = system: S. aureus; test: as above; format: cell-based; details: Staphylococcus aureus
Description: as §1, §2

[8] = system: Staphylococcus aureus; test: MIC by NCCLS broth microdilution, 1100 Japanese clinical isolates 1997-1998; format: cell-based; details: for MIC50 / MIC90 / MIC: Staphylococcus aureus; for MIC: Staphylococcus aureus quinolone resistant
[9] = set-up: species or system healthy volunteers; details: human, in vivo, po
[10] = system: Streptococcus pneumoniae; test: MIC by NCCLS broth microdilution, 1100 Japanese clinical isolates 1997-1998; format: cell-based; details: for MIC50 / MIC90 / MIC: Streptococcus pneumoniae; for MIC50: read-out: MIC50; for MIC90: read-out: MIC90; for MIC: Streptococcus pneumoniae quinolone resistant
[11] = system: Staphylococcus aureus; test: MIC by NCCLS reference broth microdilution, 450 respiratory tract pathogens; format: cell-based
[12] = system: Moraxella catarrhalis; test: MIC by agar dilution (NCCLS), 411 isolates Buenos Aires 1998-99; format: cell-based; details: Moraxella catarrhalis (n = 59)
[13] = system: Providencia rettgeri; test: MIC by NCCLS broth microdilution, 1100 Japanese clinical isolates 1997-1998; format: cell-based
[14] = system: K. pneumoniae; test: Urinary bactericidal titers (UBT) and AUBTC of volunteers' urine; format: cell-based; details: K. pneumoniae (16) Laboratory No. 595; urine after gemifloxacin 320 mg or ofloxacin 400 mg
[15] = system: Enterococcus faecium; test: MIC by agar macrodilution (NCCLS), 373 Gram positive isolates, Athens 1998; format: cell-based
[16] = system: E. faecalis; test: Urinary bactericidal titers (UBT) and AUBTC of volunteers' urine; format: cell-based; details: urine after gemifloxacin 320 mg or ofloxacin 400 mg
[17] = system: P. mirabilis; test: as above; format: cell-based; details: P. mirabilis (16) Laboratory No. 414; urine after gemifloxacin 320 mg or ofloxacin 400 mg
[18] = system: Proteus vulgaris; test: MIC by NCCLS broth microdilution, 1100 Japanese clinical isolates 1997-1998; format: cell-based
[19] = system: Yersinia enterocolitica; test: MIC by agar dilution (NCCLS M7-A4), 288 enteropathogenic isolates, eight quinolones; format: cell-based; details: Yersinia enterocolitica (n = 22)
[20] = E. faecalis Laboratory No. 55, inoculum 6.0 CFU 10^5/ml
[21] = E. faecalis Laboratory No. 60, inoculum 7.0 CFU 10^5/ml
[22] = S. aureus Laboratory No. 83, inoculum 7.1 CFU 10^5/ml
[23] = S. aureus Laboratory No. 161, inoculum 9.4 CFU 10^5/ml
[24] = S. aureus Laboratory No. 636, inoculum 5.6 CFU 10^5/ml
[25] = Staphylococcus aureus oxacillin resistant (n=57)
[26] = Staphylococcus aureus oxacillin susceptible (n=41)
[27] = Streptococcus pneumoniae amoxicillin resistant (n=40)
[28] = Streptococcus pneumoniae amoxicillin susceptible (n=35)
[29] = Streptococcus pneumoniae erythromycin resistant (n=34)
[30] = Streptococcus pneumoniae erythromycin susceptible (n=11)
[31] = β-lactamase positive and erythromycin resistant (n = 10)

## CO/N=C1\CN(c2nc3c(cc2F)c(=O)c(C(=O)O)cn3C2CC2)CC1CN (racemic) [Gemifloxacin, (R,S)-7-(3-aminomethyl-4-methoxyiminopyrrolidin-1-yl)-1-cyclopropyl-6-fluoro-4-oxo-1,4-dihydro-1,8-naphthyridine-3-carboxylic acid]
[1]; E. coli (16) ATCC 25922
  AUBTC (range): 546 (174-816)
[1]; E. coli (16) Laboratory No. 523
  AUBTC (range): 237(48-384)
[1]; reference strain E. coli ATCC 25922, 320 mg gemifloxacin / 400 mg ofloxacin
  time for which median UBTs exceed 0: 5 days
[2]
  AUBTC (range): 48 (12-300)
[3]; P. aeruginosa Laboratory No. 568, inoculum 5.6 CFU 10^5/ml
  MIC: 1 µg/mL (≈ 2.57 µM)
[3]; Pseudomonas aeruginosa, P. aeruginosa Laboratory No. 568, inoculum 5.6 CFU 10^5/ml
  MBC: 2 µg/mL (≈ 5.14 µM)
[3]; Pseudomonas aeruginosa, P. aeruginosa clinical isolate, read-out: MIC
  MIC: 1 µg/mL (≈ 2.57 µM)
[4]; K. pneumoniae Laboratory No. 595, inoculum 3.7 CFU 10^5/ml
  MIC: 0.03 µg/mL (≈ 0.077 µM)
[4]; Klebsiella pneumoniae, K. pneumoniae Laboratory No. 595, inoculum 3.7 CFU 10^5/ml
  MBC: 0.03 µg/mL (≈ 0.077 µM)
[4]; Klebsiella pneumoniae, K. pneumoniae clinical isolate, read-out: MIC
  MIC: 0.03 µg/mL (≈ 0.077 µM)
[5]; [20]
  MBC: 2 µg/mL (≈ 5.14 µM)
  MIC: 0.5 µg/mL (≈ 1.28 µM)
[5]; [21]
  MBC: 0.06 µg/mL (≈ 0.154 µM)
  MIC: 0.06 µg/mL (≈ 0.154 µM)
[5]; E. faecalis isolate (0.06/2)
  MIC: 0.06 µg/mL (≈ 0.154 µM)
[5]; E. faecalis isolate (0.5/32)
  MIC: 0.5 µg/mL (≈ 1.28 µM)
[6]; E. coli ATCC 25922, inoculum 1.3 CFU 10^5/ml
  MIC: 0.016 µg/mL (≈ 0.0411 µM)
[6]; E. coli Laboratory No. 523, inoculum 3.4 CFU 10^5/ml
  MIC: 0.06 µg/mL (≈ 0.154 µM)
[6]; Escherichia coli, ATCC25922, E. coli ATCC 25922 (reference strain), read-out: MIC
  MIC: 0.016 µg/mL (≈ 0.0411 µM)
[6]; Escherichia coli, ATCC25922, E. coli ATCC 25922, inoculum 1.3 CFU 10^5/ml
  MBC: 0.016 µg/mL (≈ 0.0411 µM)
[6]; Escherichia coli, E. coli Laboratory No. 523, inoculum 3.4 CFU 10^5/ml
  MBC: 0.06 µg/mL (≈ 0.154 µM)
[6]; Escherichia coli, E. coli clinical isolate (0.06/0.5), read-out: MIC
  MIC: 0.06 µg/mL (≈ 0.154 µM)
[7]; [22]
  MBC: 0.008 µg/mL (≈ 0.0205 µM)
  MIC: 0.008 µg/mL (≈ 0.0205 µM)
[7]; [23]
  MBC: 0.25 µg/mL (≈ 0.642 µM)
  MIC: 0.25 µg/mL (≈ 0.642 µM)
[7]; [24]
  MBC: 2 µg/mL (≈ 5.14 µM)
  MIC: 2 µg/mL (≈ 5.14 µM)
[7]; S. aureus isolate (0.008/0.25)
  MIC: 0.008 µg/mL (≈ 0.0205 µM)
[7]; S. aureus isolate (0.25/4)
  MIC: 0.25 µg/mL (≈ 0.642 µM)
[7]; S. aureus isolate (2/32), quinolone-resistant
  MIC: 2 µg/mL (≈ 5.14 µM)
[8]; [25]
  MIC Range: ≤0.008 to 64 µg/mL
  MIC50: 1 µg/mL (≈ 2.57 µM)
  MIC90: 32 µg/mL (≈ 82.2 µM)
[8]; [26]
  MIC Range: ≤0.008 to 1 µg/mL
  MIC50: 0.063 µg/mL (≈ 0.162 µM)
  MIC90: 0.063 µg/mL (≈ 0.162 µM)
[8]; strain TMS1* (spontaneous mutant resistant to ciprofloxacin)
  MIC: 0.032 µg/mL (≈ 0.0822 µM)
[8]; strain TMS2* (spontaneous mutant resistant to ciprofloxacin)
  MIC: 1 µg/mL (≈ 2.57 µM)
[8]; strain TMS3, read-out: MIC
  MIC: 32 µg/mL (≈ 82.2 µM)
[8]; strain TMS4, read-out: MIC
  MIC: 4 µg/mL (≈ 10.3 µM)
[8]; strain TMS5, read-out: MIC
  MIC: 2 µg/mL (≈ 5.14 µM)
[8]; strain TMS6, read-out: MIC
  MIC: 0.25 µg/mL (≈ 0.642 µM)
[9]
  tolerability: well tolerated
[10]; [27]
  MIC Range: 0.016 to 0.125 µg/mL
  MIC50: 0.032 µg/mL (≈ 0.0822 µM)
  MIC90: 0.032 µg/mL (≈ 0.0822 µM)
[10]; [28]
  MIC Range: ≤0.008 to 0.125 µg/mL
  MIC50: 0.016 µg/mL (≈ 0.0411 µM)
  MIC90: 0.032 µg/mL (≈ 0.0822 µM)
[10]; [29]
  MIC Range: ≤0.008 to 0.125 µg/mL
  MIC50: 0.016 µg/mL (≈ 0.0411 µM)
  MIC90: 0.032 µg/mL (≈ 0.0822 µM)
[10]; [30]
  MIC Range: 0.016 to 0.032 µg/mL
  MIC50: 0.032 µg/mL (≈ 0.0822 µM)
  MIC90: 0.032 µg/mL (≈ 0.0822 µM)
[10]; strain TMS1
  MIC: 0.032 µg/mL (≈ 0.0822 µM)
[10]; strain TMS2
  MIC: 0.5 µg/mL (≈ 1.28 µM)
[10]; quinolone-resistant S. pneumoniae
  activity higher than that of the other quinolones: 2-128 fold
[11]; Staphylococcus aureus (n = 50)
  MIC: 0.00375 to 0.12 µg/mL (≈ 0.00963 to 0.308 µM)
  MIC50: 0.06 µg/mL (≈ 0.154 µM)
  MIC90: 0.12 µg/mL (≈ 0.308 µM)
[11]; β-lactamase negative (n = 20)
  MIC: 0.06 to 0.12 µg/mL (≈ 0.154 to 0.308 µM)
  MIC50: 0.12 µg/mL (≈ 0.308 µM)
  MIC90: 0.12 µg/mL (≈ 0.308 µM)
[11]; β-lactamase positive (n = 20)
  MIC: 0.00375 to 0.12 µg/mL (≈ 0.00963 to 0.308 µM)
  MIC50: 0.12 µg/mL (≈ 0.308 µM)
  MIC90: 0.123 µg/mL (≈ 0.316 µM)
[11]; [31]
  MIC: 0.06 to 0.12 µg/mL (≈ 0.154 to 0.308 µM)
  MIC50: 0.06 µg/mL (≈ 0.154 µM)
  MIC90: 0.06 µg/mL (≈ 0.154 µM)
[12]
  MIC Range: ≤0.004 to 0.016 µg/mL
[12]; read-out: MIC90
  MIC90: 0.008 µg/mL (≈ 0.0205 µM)
[13]; Providencia rettgeri
  MIC50: 0.125 µg/mL (≈ 0.321 µM)
[13]; Providencia rettgeri (n=12)
  MIC90: 8 µg/mL (≈ 20.5 µM)
  MIC Range: 0.063 to 16 µg/mL
[14]
  AUBTC (range): 321 (72-564)
[15]
  MIC distribution (µg/ml) 0.03: 0
  MIC distribution (µg/ml) 0.06: 1
  MIC distribution (µg/ml) 0.125: 4
  MIC distribution (µg/ml) 0.25: 0
  MIC distribution (µg/ml) 0.5: 4
  MIC distribution (µg/ml) 1: 0
  MIC distribution (µg/ml) 2: 0
  MIC distribution (µg/ml) 4: 2
  MIC distribution (µg/ml) 16: 3
  MIC distribution (µg/ml) ≤0.015: 0
  MIC distribution (µg/ml) ≥32: 0
[15]; Enterococcus faecium, n = 14 isolates, read-out: MIC50
  MIC50: 0.25 µg/mL (≈ 0.642 µM)
[15]; Enterococcus faecium, n = 14 isolates, read-out: MIC90
  MIC90: 16 µg/mL (≈ 41.1 µM)
[15]; n = 14 isolates
  MIC Range: 0.06 to 16 µg/mL
[15]; number of isolates at MIC 8 µg/ml, n = 14
  MIC distribution (µg/ml) 8: 8
[16]; E. faecalis (13) Laboratory No. 55
  AUBTC (range): 39 (0-102)
[16]; E. faecalis (16) Laboratory No. 60
  AUBTC (range): 246 (96-516)
[17]
  AUBTC (range): 261 (120-510)
[18]; Proteus vulgaris
  MIC50: 0.125 µg/mL (≈ 0.321 µM)
[18]; Proteus vulgaris (n=25)
  MIC Range: 0.063 to 1 µg/mL
[18]; Proteus vulgaris (n=25), read-out: MIC90
  MIC90: 0.25 µg/mL (≈ 0.642 µM)
[19]
  % Susceptible: 100%
  MIC50: 0.03 µg/mL (≈ 0.077 µM)
  MIC90: 0.03 µg/mL (≈ 0.077 µM)
  MIC Range: ≤0.015 to 0.12 µg/mL

From patent EP1561465A2, “Methods of use of fluoroquinolone compounds against bacteria” (LG Life Sciences, Ltd., priority 1999, dated 2001)
